{"source": "ChEMBL document CHEMBL4765481", "about": "“Sialyltransferase Inhibitors Suppress Breast Cancer Metastasis” (J Med Chem, 2021)", "key": {"[1]": {"target": "T1, CMP-N-acetylneuraminate-beta-1,4-galactoside alpha-2,3-sialyltransferase (Rattus norvegicus, UniProt Q02734)", "T1 sequence (Q02734 whole entry)": "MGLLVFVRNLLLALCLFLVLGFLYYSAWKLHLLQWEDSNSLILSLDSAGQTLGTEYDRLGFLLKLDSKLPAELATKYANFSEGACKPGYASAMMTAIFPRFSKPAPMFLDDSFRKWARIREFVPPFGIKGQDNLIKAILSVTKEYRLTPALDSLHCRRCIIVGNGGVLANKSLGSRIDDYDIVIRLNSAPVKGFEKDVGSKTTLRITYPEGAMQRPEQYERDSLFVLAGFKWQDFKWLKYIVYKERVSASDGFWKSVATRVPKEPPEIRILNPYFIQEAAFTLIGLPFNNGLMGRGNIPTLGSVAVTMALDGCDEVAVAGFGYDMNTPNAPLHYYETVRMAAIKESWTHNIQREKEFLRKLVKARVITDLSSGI", "assay": "Inhibition of rat alpha-2,3-N-ST3GALIII assessed as reduction in sialylated-product formation using Gal-beta1-4Glc and CMP-NeuSAc incubated for 1.5 hrs by reverse-phase HPLC analysis"}, "[2]": {"target": "T2, Beta-galactoside alpha-2,6-sialyltransferase 1 (Homo sapiens, UniProt P15907)", "T2 sequence (P15907 whole entry)": "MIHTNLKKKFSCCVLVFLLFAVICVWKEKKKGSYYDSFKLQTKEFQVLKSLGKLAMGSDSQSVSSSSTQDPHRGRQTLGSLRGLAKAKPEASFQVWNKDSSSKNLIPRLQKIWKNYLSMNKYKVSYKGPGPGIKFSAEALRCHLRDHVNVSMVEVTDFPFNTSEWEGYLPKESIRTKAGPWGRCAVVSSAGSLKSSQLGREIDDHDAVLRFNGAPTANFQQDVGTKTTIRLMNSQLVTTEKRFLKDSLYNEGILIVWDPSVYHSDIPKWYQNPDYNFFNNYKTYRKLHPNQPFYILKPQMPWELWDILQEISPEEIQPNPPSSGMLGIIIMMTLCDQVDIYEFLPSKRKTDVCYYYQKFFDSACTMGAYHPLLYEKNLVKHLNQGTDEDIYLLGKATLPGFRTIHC", "assay": "Inhibition of human alpha-2,6-ST6GAL1 assessed as reduction in sialylated-product formation using Gal-beta1-4GlcNac and CMP-NeuSAc incubated for 15 mins by reverse-phase HPLC analysis"}, "Rattus norvegicus [3]": {"organism": "Rattus norvegicus", "assay": "Selectivity ratio of inhibition of rat alpha-2,3-O-ST3GALI at 500 uM to IC50 for inhibition of rat alpha-2,3-N-ST3GALIII"}, "Rattus norvegicus [4]": {"organism": "Rattus norvegicus", "assay": "Selectivity ratio of inhibition of rat alpha-2,3-O-ST3GALI at 1000 uM to IC50 for inhibition of rat alpha-2,3-N-ST3GALIII"}, "MDA-MB-231 [5]": {"test_system": "MDA-MB-231", "assay": "Inhibition of serum-induced cell migration of human MDA-MB-231 cells incubated for 16 hrs by Boyden chamber assay", "format": "functional, cell-based", "settings": "MDA-MB-231, 16 h"}, "MDA-MB-231 [6]": {"test_system": "MDA-MB-231", "assay": "Inhibition of serum-induced cell migration of human MDA-MB-231 cells at 20 uM incubated for 16 hrs by Boyden chamber assay", "format": "functional, cell-based"}, "MDA-MB-231 [7]": {"test_system": "MDA-MB-231", "assay": "Inhibition of Sialyltransferase in human MDA-MB-231 cells assessed as suppression of sialylation of integrin subunit beta1/beta3/beta4/beta5 at 10 to 20 um after 48 hrs by Western blot analysis", "format": "cell-based", "settings": "dose 10-20 µM"}, "MDA-MB-231 [8]": {"test_system": "MDA-MB-231", "assay": "Antitumor activity against luciferase-tagged human MDA-MB-231 cells xenografted in BALB/c mouse assessed as induction of tumor suppression at 10 mg/kg/3 days, ip measured after 8 weeks", "format": "functional, organism-based"}, "MDA-MB-231 [9]": {"test_system": "MDA-MB-231", "assay": "Antitumor activity against luciferase-tagged human MDA-MB-231 cells xenografted in BALB/c mouse assessed as induction of delayed lung metastasis at 10 mg/kg/3 days, ip measured after 8 weeks", "format": "functional, organism-based"}, "MDA-MB-231 [10]": {"test_system": "MDA-MB-231", "assay": "Antitumor activity against luciferase-tagged human MDA-MB-231 cells xenografted in BALB/c mouse assessed as reduction in number of metastatic foci in lungs at 10 mg/kg/3 days, ip measured after 8 weeks by histological analysis", "format": "functional, organism-based"}, "MDA-MB-231 [11]": {"test_system": "MDA-MB-231", "assay": "Antitumor activity against luciferase-tagged human MDA-MB-231 cells xenografted in BALB/c mouse assessed as reduction in metastatic nodules in lymph node at 10 mg/kg/3 days, ip measured after 8 weeks by H and E staining based histological analysis", "format": "functional, organism-based"}, "[12]": {"assay": "Toxicity in BALB/c mouse xenografted with luciferase-tagged human MDA-MB-231 cells at 10 mg/kg/3 days, ip measured after 8 weeks by blood tests", "format": "organism-based", "settings": "in vivo, 1344 h"}, "[13]": {"assay": "Toxicity in BALB/c mouse xenografted with luciferase-tagged human MDA-MB-231 cells assessed as effect on body weight at 10 mg/kg/3 days, ip measured after 8 weeks", "format": "organism-based", "settings": "in vivo, 1344 h"}, "MDA-MB-231 [14]": {"test_system": "MDA-MB-231", "assay": "Antiangiogenesis activity against luciferase-tagged human MDA-MB-231 cells xenografted in BALB/c mouse assessed as reduction in number of vessels surrounding tumor nodules by measuring CD31 expression at 10 mg/kg/3 days, ip measured after 8 weeks by immunostaining", "format": "functional, organism-based"}, "MDA-MB-231 [15]": {"test_system": "MDA-MB-231", "assay": "Antiangiogenesis activity against luciferase-tagged human MDA-MB-231 cells xenografted in BALB/c mouse assessed as reduction in cell proliferation by measuring Ki67 expression at 10 mg/kg/3 days, ip measured after 8 weeks by immunostaining", "format": "functional, organism-based"}, "MDA-MB-231 [16]": {"test_system": "MDA-MB-231", "assay": "Inhibition of Sialyltransferase in human MDA-MB-231 cells assessed as reduction in FAK Tyr925 phosphorylation level at 10 to 20 uM incubated for 48 hrs by immunoblot analysis", "format": "cell-based", "settings": "dose 10-20 µM"}, "MDA-MB-231 [17]": {"test_system": "MDA-MB-231", "assay": "Inhibition of Sialyltransferase in human MDA-MB-231 cells assessed as reduction in paxillin Tyr118 phosphorylation level at 10 to 20 uM incubated for 48 hrs by immunoblot analysis", "format": "cell-based", "settings": "dose 10-20 µM"}, "MDA-MB-231 [18]": {"test_system": "MDA-MB-231", "assay": "Inhibition of Sialyltransferase in human MDA-MB-231 cells assessed as reduction in IKKalpha/beta Ser176/180 phosphorylation level at 10 to 20 uM incubated for 48 hrs by immunoblot analysis", "format": "cell-based", "settings": "dose 10-20 µM"}, "MDA-MB-231 [19]": {"test_system": "MDA-MB-231", "assay": "Inhibition of Sialyltransferase in human MDA-MB-231 cells assessed as reduction in IkappaB-alpha Ser32 phosphorylation level at 10 to 20 uM incubated for 48 hrs by immunoblot analysis", "format": "cell-based", "settings": "dose 10-20 µM"}, "MDA-MB-231 [20]": {"test_system": "MDA-MB-231", "assay": "Inhibition of Sialyltransferase in human MDA-MB-231 cells assessed as reduction in NFkappaB Ser536 phosphorylation level at 10 to 20 uM incubated for 48 hrs by immunoblot analysis", "format": "cell-based", "settings": "dose 10-20 µM"}, "Danio rerio [21]": {"organism": "Danio rerio", "assay": "Antiangiogenic activity in transgenic zebrafish embryos assessed as suppression of intersegmental vessels formation at 20 uM measured at 30 hrs postfertilization by fluorescence microscopy", "format": "functional, organism-based"}, "Danio rerio [22]": {"organism": "Danio rerio", "assay": "Antiangiogenic activity in transgenic zebrafish embryos assessed as suppression of caudal vein plexus formation at 20 uM measured at 30 hrs postfertilization by fluorescence microscopy", "format": "functional, organism-based"}, "[23]": {"assay": "Toxicity in transgenic zebrafish embryos assessed as effect on gross morphology at 20 uM measured at 30 hrs postfertilization by fluorescence microscopy", "parameters": "species or system Danio rerio", "settings": "in vivo"}}, "note": "Calls of active or inactive are those of the source. The calls are words filed in the database; no cut-off is given here.", "data": [{"compound": "C[C@H](CCC(=O)OCCOCCOCCN=[N+]=[N-])[C@H]1CC[C@H]2[C@@H]3CC[C@@H]4C[C@H](OC(=O)[C@H](CC(=O)O)Nc5ccc([N+](=O)[O-])c6nonc56)CC[C@]4(C)[C@H]3CC[C@]12C", "values": [{"measurement": "IC50", "setting": "[1]", "value": 1.74, "unit": "µM"}, {"measurement": "IC50", "setting": "[2]", "value": 3.6, "unit": "µM"}, {"measurement": "Selectivity ratio", "setting": "Rattus norvegicus [3]", "value": "> 287"}, {"measurement": "Selectivity ratio", "setting": "Rattus norvegicus [4]", "value": "< 575"}, {"measurement": "IC50", "setting": "MDA-MB-231 [5]", "value": 10.6, "unit": "µM"}, {"measurement": "inhibition", "setting": "MDA-MB-231 [6]", "value": "Active"}, {"measurement": "inhibition", "setting": "MDA-MB-231 [7]", "value": "Active"}, {"measurement": "Activity", "setting": "MDA-MB-231 [8]", "value": "Active"}, {"measurement": "Activity", "setting": "MDA-MB-231 [9]", "value": "Active"}, {"measurement": "Activity", "setting": "MDA-MB-231 [10]", "value": "Active"}, {"measurement": "Activity", "setting": "MDA-MB-231 [11]", "value": "Active"}, {"measurement": "Activity", "setting": "[12]", "value": "Non-Toxic"}, {"measurement": "Activity", "setting": "[13]", "value": "Non-Toxic"}, {"measurement": "Activity", "setting": "MDA-MB-231 [14]", "value": "Active"}, {"measurement": "Activity", "setting": "MDA-MB-231 [15]", "value": "Active"}, {"measurement": "inhibition", "setting": "MDA-MB-231 [16]", "value": "Dose-dependent effect"}, {"measurement": "inhibition", "setting": "MDA-MB-231 [17]", "value": "Dose-dependent effect"}, {"measurement": "inhibition", "setting": "MDA-MB-231 [18]", "value": "Active"}, {"measurement": "inhibition", "setting": "MDA-MB-231 [19]", "value": "Active"}, {"measurement": "inhibition", "setting": "MDA-MB-231 [20]", "value": "Active"}, {"measurement": "Activity", "setting": "Danio rerio [21]", "value": "Active"}, {"measurement": "Activity", "setting": "Danio rerio [22]", "value": "Active"}, {"measurement": "Activity", "setting": "[23]", "value": "Non-Toxic"}]}]}
